Source: ChEMBL document CHEMBL1201862, “PubChem BioAssay data set” (2004)
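Protocol summary: plate cells (96-well), add compound at 5 concentrations, incubate 48 h, interpolate endpoints linearly. GI50: concentration for 50% inhibition of growth.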 Active and inactive are the calls of the source. Rule as the data show it: active = GI50 up to about 1.1 µM and inactive = higher.

How the values were obtained:
Assay in all cases: NCI tumour cell line growth inhibition, 48 h
ACHN = test system: ACHN
HCT-15 = test system: HCT-15
HCT-116 = test system: HCT-116
K562 = test system: K562
UO-31 = test system: UO-31
UACC-257 = test system: UACC-257
SK-MEL-2 = test system: SK-MEL-2
SF-268 = test system: SF-268
MCF7 = test system: MCF7
OVCAR-5 = test system: OVCAR-5
MDA-N = test system: MDA-N
LOX IMVI = test system: LOX IMVI
CAKI-1 = test system: CAKI-1
SF-295 = test system: SF-295
CCRF-CEM = test system: CCRF-CEM
T47D = test system: T47D
Malme-3M = test system: Malme-3M
UACC-62 = test system: UACC-62
RXF 393 = test system: RXF 393
OVCAR-3 = test system: OVCAR-3

Compound | GI50 (ACHN) | GI50 (HCT-15) [µM] | GI50 (HCT-116) | GI50 (K562) | GI50 (UO-31) | GI50 (UACC-257) | GI50 (SK-MEL-2) | GI50 (SF-268) | GI50 (MCF7) | GI50 (OVCAR-5) | GI50 (MDA-N) | GI50 (LOX IMVI) | GI50 (CAKI-1) | GI50 (SF-295) | GI50 (CCRF-CEM) | GI50 (T47D) | GI50 (Malme-3M) | GI50 (UACC-62) | GI50 (RXF 393) | GI50 (OVCAR-3)
C/C=C(/COC(C)=O)C(=O)OC1C=C(C=O)C(C)(C)C=C1C (stereo not given) | > 100 µM (inactive) | > 100 | > 100 µM (inactive) | 43.5 µM (inactive) | > 100 µM (inactive) | > 100 µM (inactive) | > 100 µM (inactive) | > 100 µM (inactive) | 87.7 µM (inactive) | > 100 µM (inactive) | > 100 µM (inactive) | > 100 µM (inactive) | > 100 µM (inactive) | > 100 µM (inactive) | 37.7 µM (inactive) | > 100 µM (inactive) | > 100 µM (inactive) | > 100 µM (inactive) | – | –
O=C(CC(=O)n1nc(-c2ccccc2)c(/N=N/c2ccc(Cl)cc2)c1-c1ccccc1)Nc1cccc(Cl)c1 | 63.8 µM (inactive) | 54.6 | 61.7 µM (inactive) | 46.7 µM (inactive) | 30.5 µM (inactive) | > 100 µM (inactive) | > 100 µM (inactive) | – | > 10 µM (inactive) | 96.4 µM (inactive) | > 100 µM (inactive) | – | – | – | 38.9 µM (inactive) | > 100 µM (inactive) | 42.9 µM (inactive) | 73.8 µM (inactive) | > 100 µM (inactive) | –
CC(C)(O)C1CC(=O)C(C)(C2C(O)CC3(C)C4CC=C5C(CCC(O)C5(C)C)C4(C)C(=O)CC23C)O1 (stereo not given) | > 100 µM (inactive) | > 100 | > 100 µM (inactive) | > 100 µM (inactive) | > 100 µM (inactive) | > 100 µM (inactive) | > 100 µM (inactive) | > 100 µM (inactive) | > 100 µM (inactive) | > 100 µM (inactive) | > 100 µM (inactive) | > 100 µM (inactive) | > 100 µM (inactive) | > 100 µM (inactive) | – | > 100 µM (inactive) | – | > 100 µM (inactive) | > 100 µM (inactive) | > 100 µM (inactive)
CCC(C)C(=O)OC1CC2(C)C(c3ccoc3)OC(=O)CC23OC2(C)OC34C(OC(=O)C(C)C)C3(O)C(OC(=O)C5(C)OC5C)C5(C)CC3(O)C(C)(C5CC(=O)OC)C14O2 (stereo not given) | 37 µM (inactive) | 40.6 | 54.7 µM (inactive) | 27.8 µM (inactive) | 35.9 µM (inactive) | 79.4 µM (inactive) | 68.7 µM (inactive) | 47.2 µM (inactive) | 17.6 µM (inactive) | 91.2 µM (inactive) | 47.1 µM (inactive) | 52.7 µM (inactive) | 57.3 µM (inactive) | 41.1 µM (inactive) | 28.6 µM (inactive) | 23.1 µM (inactive) | > 100 µM (inactive) | 86.9 µM (inactive) | – | –
Cc1ccc(S(=O)(=O)N(CCN2C(=O)c3ccccc3C2=O)c2cc3c4c(c2)Oc2cc(N(CCN5C(=O)c6ccccc6C5=O)S(=O)(=O)c5ccc(C)cc5)cc5c2C4(C)c2c(cc(N(CCN4C(=O)c6ccccc6C4=O)S(=O)(=O)c4ccc(C)cc4)cc2O5)O3)cc1 | > 100 µM (inactive) | > 100 | > 100 µM (inactive) | > 100 µM (inactive) | > 100 µM (inactive) | > 100 µM (inactive) | > 100 µM (inactive) | > 100 µM (inactive) | > 100 µM (inactive) | > 100 µM (inactive) | > 100 µM (inactive) | > 100 µM (inactive) | > 100 µM (inactive) | > 100 µM (inactive) | > 100 µM (inactive) | > 100 µM (inactive) | – | > 100 µM (inactive) | > 100 µM (inactive) | > 100 µM (inactive)
O=C(c1ccccc1)c1ccc(N2C(=O)/C(=C/Cc3ccco3)N=C2c2ccccc2)c(N2C(=O)/C(=C/Cc3ccco3)N=C2c2ccccc2)c1 | 33 µM (inactive) | 45 | 40.2 µM (inactive) | 64.7 µM (inactive) | 39 µM (inactive) | 47.1 µM (inactive) | 25.5 µM (inactive) | 32.1 µM (inactive) | 52 µM (inactive) | > 100 µM (inactive) | 60.3 µM (inactive) | 24.2 µM (inactive) | 67.5 µM (inactive) | 30 µM (inactive) | 11.1 µM (inactive) | 36.4 µM (inactive) | – | 26.5 µM (inactive) | – | 21.6 µM (inactive)
O=C1CSC2=NC3=C(CSC/C3=C\c3ccc(Cl)cc3)C(c3ccc(Cl)cc3)N12 (stereo not given) | 16.9 µM (inactive) | 15.8 | 5.86 µM (inactive) | 21.1 µM (inactive) | 12.9 µM (inactive) | 28.2 µM (inactive) | 25.3 µM (inactive) | 41.2 µM (inactive) | 19.3 µM (inactive) | 61.2 µM (inactive) | > 10 µM (inactive) | 12.3 µM (inactive) | 37.2 µM (inactive) | 12.1 µM (inactive) | 14.6 µM (inactive) | 32.5 µM (inactive) | 40.6 µM (inactive) | 24.9 µM (inactive) | – | 15.5 µM (inactive)
